Source: patent US8058243B2, “Method for treating a brain cancer with ifenprodil” (HSC Research and Development Limited Partnership, priority 2006, dated 2011)
Structures can show the parent of a compound that is named as a salt. Where two headings read alike, the source gives them in different places.

Tested on: murine neural precursor cells (neurosphere cultures)
Test: HTS of LOPAC library against secondary neurosphere cultures, MTT proliferation assay at 3 μM, day 7 (z score, P value)
Type: cell-based, mouse
[1] = LOPAC primary screen, neurosphere MTT proliferation, 3 μM, day 7
[2] = yes/no: significantly inhibited neurosphere proliferation (P<0.01) in the primary screen
[3] = LOPAC library screen at 3 μM, secondary neurosphere cultures, MTT
[4] = primary LOPAC screen, 3 μM, MTT, neurosphere proliferation
[5] = yes/no: significantly inhibited neurosphere proliferation in the primary screen
[6] = yes/no: significantly inhibited neurosphere proliferation (P<0.01) in primary screen
[7] = LOPAC library screen, 3 μM, MTT, secondary neurosphere cultures, day 7
[8] = yes = significantly inhibited neurosphere proliferation (P<0.01) in the primary screen
[9] = LOPAC screen, neurosphere MTT proliferation, 3 μM, day 7
[10] = yes/no: significantly inhibited neurosphere proliferation in primary screen
[11] = LOPAC library screen, 3 μM, MTT, neurosphere cultures

## CC(=O)OCC1=C(C(=O)[O-])N2C(=O)[C@@H](NC(=O)CCC[C@@H](N)C(=O)[O-])[C@H]2SC1.[Zn+2] [Cephalosporin C zinc salt]
  Z Score: −3.309
[1]
  Z score: −3.309
[2]
  Activity: yes

## Nc1ccc(N2C(=O)c3ccccc3C2=O)c(Cl)c1 [N-(4-Amino-2-chlorophenyl)phthalimide]
[3]
  Z Score: −0.6021
[4]
  Z score: −0.602
[5]
  Activity: no

## NCC1(CC(=O)O)CCCCC1 [Gabapentin]
  Z Score: 0.8838
[1]
  Z score: 0.884
[6]
  Activity: no

## c1ccc2c(CC3=NCCN3)cccc2c1 [Naphazoline hydrochloride]
[7]
  Z Score: −1.724
[1]
  Z score: −1.724
[8]
  Activity: no

## CN(C)c1nc(N)c(C(=O)NC(=N)N)nc1Cl.Cl [5-(N,N-Dimethyl)amiloride hydrochloride]
  Z Score: 2.396
[4]
  Z score: 2.396
[5]
  Activity: no

## CN[C@@H]1C[C@@H](c2ccc(Cl)c(Cl)c2)c2ccccc21 [Indatraline hydrochloride]
  Z Score: −0.7236
[1]
  Z score: −0.724
[6]
  Activity: no

## CCCC(=O)NCCc1c2n(c3ccc(OC)cc13)Cc1ccccc1-2 [IIK7]
  Z Score: −0.3544
[1]
  Z score: −0.354
[6]
  Activity: no

## C=C[C@@]1(C)CC(=O)[C@]2(O)[C@@]3(C)[C@@H](O)CCC(C)(C)[C@@H]3[C@H](O)[C@H](OC(C)=O)[C@@]2(C)O1 [Forskolin]
[7]
  Z Score: −1.331
[1]
  Z score: −1.331

## COC(=O)C1=C(C)NC(C)=C([N+](=O)[O-])C1c1ccccc1C(F)(F)F (stereo not shown) [(B1)-Bay K 8644]
  Z Score: 0.8527

## CCCCOC(=O)NS(=O)(=O)c1sc(CC(C)C)cc1-c1ccc(Cn2c(CC)nc3c(C)cc(C)nc32)cc1 [L-162,313]
  Z Score: 0.7923
[1]
  Z score: 0.792
[6]
  Activity: no

## R(−)-N-Allylnorapomorphine hydrobromide
  Z Score: −7.839
[1]
  Z score: −7.839
[2]
  Activity: yes

## CC1=C(/C=C/C(C)=C/C=C/C(C)=C/C=C/C=C(C)/C=C/C=C(C)/C=C/C2=C(C)C(=O)[C@@H](O)CC2(C)C)C(C)(C)C[C@H](O)C1=O [Astaxanthin]
168 h, 3 µM
  Z Score: 1.571
  Z score: 1.571
[2]
  Activity: no

## Br.COc1ccc(-c2ccc(=N)n(CCCC(=O)O)n2)cc1 [SR-95531]
  Activity: no
  Z Score: −0.9574
  Z score: −0.957

## N=C(N)NCCC[C@H](N)C(=O)O [L-Arginine]
  Z Score: 0.5592
[4]
  Z score: 0.559
[5]
  Activity: no

## C[N+]1(C)[C@@H]2CC[C@H]1C[C@@H](OC(=O)C(CO)c1ccccc1)C2 (stereo partly shown) [Atropine methyl bromide]
[3]
  Z Score: −0.8716
[1]
  Z score: −0.872
[8]
  Activity: no

## CC(Oc1ccc(Oc2cnc3ccc(Cl)cc3n2)cc1)C(=O)O (stereo not shown) [XK469]
  Activity: yes
  Z Score: −9.355
[1]
  Z score: −9.355

## CC[C@@H](CO)NC(=O)[C@@H]1C=C2c3cccc4[nH]cc(c34)C[C@H]2N(C)C1 [Methylergonovine maleate]
  Z Score: −0.7846
[1]
  Z score: −0.785
[8]
  Activity: no

## CCc1cccc(N(C)C(N)=Nc2cccc3ccccc23)c1 [CNS-1102]
  Activity: yes
[7]
  Z Score: −3.782
[1]
  Z score: −3.782

## Cc1nc(N=Nc2ccc(C(=O)O)cc2)c(COP(=O)(O)O)c(C=O)c1O [MRS 2159]
  Z Score: −0.2666
[1]
  Z score: −0.267
[8]
  Activity: no

## C=CCc1ccccc1OCC(O)CNC1(C)CCC(C(C)(C)NC(=O)CBr)CC1 (stereo not shown) [Bromoacetyl alprenolol menthane]
  Z Score: 1.442
[9]
  Z score: 1.442
[6]
  Activity: no

## CC(=O)NCCc1c[nH]c2ccc(O)cc12 [N-Acetyl-5-hydroxytryptamine]
[3]
  Z Score: −1.06
[4]
  Z score: −1.060
[5]
  Activity: no

## OC[C@H]1O[C@@H](n2cnc3c(N[C@H]4CC5CCC4C5)ncnc32)[C@H](O)[C@@H]1O (stereo partly drawn) [(S)-ENBA]
  Z Score: 0.2078
[1]
  Z score: 0.208
[6]
  Activity: no

## COc1ccc2c(c1)[C@@]13CCCC[C@H]1[C@@H](C2)NCC3.Cl [3-Methoxy-morphanin hydrochloride]
  Z Score: −7.714
[1]
  Z score: −7.714
[2]
  Activity: yes

## Cc1ccc(/C(=C\CN2CCCC2)c2ccccn2)cc1 [Triprolidine hydrochloride]
[3]
  Z Score: −0.4061
[1]
  Z score: −0.406
[10]
  Activity: no

## Cc1cnc(NC(=O)C2=C(O)c3ccccc3S(=O)(=O)N2C)s1 [Meloxicam sodium]
[8]
  Activity: no

## CNCC(O)c1ccc(O)c(O)c1.Cl (racemic) [(±)-Epinephrine hydrochloride]
[1]
  Z score: −0.328
[6]
  Activity: no

## O=C(O)CCCc1ccc(N(CCCl)CCCl)cc1 [Chlorambucil]
  Z Score: 0.08078
[1]
  Z score: 0.081
[2]
  Activity: no

## COc1cccc2c1[C@@H]1CN(CCCCn3c(=O)[nH]c4c(sc5ncc(-c6ccccc6)nc54)c3=O)C[C@@H]1CO2 [Fiduxosin hydrochloride]
[11]
  Z Score: 0.2005
[1]
  Z score: 0.200
[6]
  Activity: no

## Cl.Oc1cc2c(cc1O)C(c1ccccc1)CNCC2 (racemic) [(±)-SKF-38393 hydrochloride]
  Activity: no
[9]
  Z score: 1.280

## CCNC(=O)[C@H]1O[C@@H](n2cnc3c(N)nc(NCCc4ccc(CCC(=O)O)cc4)nc32)[C@H](O)[C@@H]1O [CGS-21680 hydrochloride]
168 h, 3 µM
  Z Score: −1.225
  Z score: −1.225
[2]
  Activity: no

## Cc1cn[nH]c1.Cl [4-Methylpyrazole hydrochloride]
  Z Score: 1.042
[1]
  Z score: 1.042
[8]
  Activity: no

## O=C1N(c2ccccc2)c2ccccc2C1(Cc1ccncc1)Cc1ccncc1 [Linopirdine]
[3]
  Z Score: −0.5525
[1]
  Z score: −0.553
[8]
  Activity: no

## O=C(O)[C@@H]1[C@H](C(=O)O)[C@H]2CC[C@@H]1O2 [Endothall]
  Z Score: −1.143
[1]
  Z score: −1.143
[6]
  Activity: no

## O=C(O)Cc1ccccc1Nc1c(Cl)cccc1Cl [Diclofenac sodium]
[11]
  Z Score: 0.2988
[9]
  Z score: 0.299
[6]
  Activity: no

## Cc1nc(N=Nc2ccc(S(=O)(=O)O)cc2S(=O)(=O)O)c(COP(=O)(O)O)c(C=O)c1O [PPADS]
  Z Score: 1.106
[1]
  Z score: 1.106
[10]
  Activity: no

## CN1[C@@H]2CC[C@H]1C[C@@H](OC(c1ccccc1)c1ccccc1)C2 [Benztropine mesylate]
[7]
  Z Score: −3.749
[1]
  Z score: −3.749
[2]
  Activity: yes

## Foliosidine
  Z Score: −0.0969
[1]
  Z score: −0.097
[6]
  Activity: no

## CCCCCCC(C(C)O)n1cnc2c(N)ncnc21.Cl (stereo not shown)
[3]
  Z Score: −0.7656
[1]
  Z score: −0.766
[6]
  Activity: no

## CCCN(CCC)CCc1cccc2c1CC(=O)N2 [Ropinirole hydrochloride]
  Activity: no
168 h, 3 µM
  Z Score: −0.2552
  Z score: −0.255

## CC(N/C(=N\C#N)Nc1ccncc1)C(C)(C)C (stereo not shown) [Pinacidil]
[7]
  Z Score: −2.117
[1]
  Z score: −2.117
[10]
  Activity: no

## CNC(=O)[C@H]1O[C@@H](n2cnc3c(NCc4cccc(I)c4)ncnc32)[C@H](O)[C@@H]1O [IB-MECA]
[3]
  Z Score: −1.089
[1]
  Z score: −1.089
[6]
  Activity: no

## COc1ccc(CN(CCN(C)C)c2ccccn2)cc1 [Pyrilamine maleate]
[11]
  Z Score: 0.9893
[1]
  Z score: 0.989
[8]
  Activity: no

## Br.CCCN1CCC2c3cc(O)ccc3CCC21 (racemic) [cis-(±)-8-OH-PBZI hydrobromide]
[1]
  Z score: −2.297
[2]
  Activity: no

## C=CCN1CC[C@]23c4c5ccc(O)c4O[C@H]2/C(=N/NC(=O)c2ccccc2)CC[C@@]3(O)[C@H]1C5 [Naloxone benzoylhydrazone]
  Z Score: 1.915
[1]
  Z score: 1.915
[2]
  Activity: no

## Oc1ccccc1O [Pyrocatechol]
  Z Score: −2.053
[9]
  Z score: −2.053
[6]
  Activity: no

## COc1ccccc1N1CCN(CCN2C(=O)CC3(CCCC3)CC2=O)CC1 [BMY 7378 dihydrochloride]
[3]
  Z Score: −0.6588
[9]
  Z score: −0.659
[6]
  Activity: no

## CSc1ccc2c(c1)C(N1CCN(C)CC1)Cc1ccccc1S2 (stereo not shown) [Methiothepin (38), Methiothepin, reference compound]
168 h, 3 µM
  Z Score: 1.868
  Z score: 1.868
[2]
  Activity: no

## NNc1nncc2ccccc12 [Hydralazine hydrochloride]
[11]
  Z Score: 0.2592
[1]
  Z score: 0.259
[6]
  Activity: no

## NCCNC(=O)Cc1ccc(NC(=O)Cc2ccc(Nc3ncnc4c3ncn4[C@@H]3O[C@H](CO)[C@@H](O)[C@H]3O)cc2)cc1 [Adenosine amine congener]
[3]
  Z Score: −0.3345
[4]
  Z score: −0.334
[5]
  Activity: no

## COC(=O)[C@@H](N)CCCN=C(N)N[N+](=O)[O-].Cl
[7]
  Z Score: −1.411
[1]
  Z score: −1.411
[8]
  Activity: no

## Nc1nc(Cl)nc2c1ncn2[C@@H]1O[C@H](CO)[C@@H](O)[C@H]1O [2-Chloroadenosine]
168 h, 3 µM
  Z Score: −0.396
  Z score: −0.396
[6]
  Activity: no

## O=C(O)[C@H]1C[C@H](C(=O)O)N1 (relative stereo) [trans-Azetidine-2,4-dicarboxylic acid]
168 h, 3 µM
  Z Score: −0.3491
  Z score: −0.349
[5]
  Activity: no

## S-(−)-Carbidopa
[7]
  Z Score: −2.314
[9]
  Z score: −2.314
[6]
  Activity: no
